How the values were obtained:
[1] = system: K562 chronic myeloid leukemia cells; assay: Apoptosis detection with fluorogenic caspase substrate Caspalux6-J1D2 in bulk and in drops; format: cell-based; conditions: K562 cells treated with Imatinib for 24 hours; both bulk and drop experiment (FIG. 7)
Description: Single K562 chronic myeloid leukemia cells were introduced to the drug combinations by picoinjecting a cell suspension to the merged drops at a concentration known to obtain a Poisson distribution with rate λ (lambda)=0.1, and incubated at 37° C. for 24 hours.
By adding a fluorogenic substrate, caspalux6-J1D2, which is specifically cleaved by increased caspase 3 and caspase 3-like activities during apoptosis, apoptosis of cells in drops can be determined.

Leukemia K562 cells = assay: Apoptosis and necrosis by Annexin V / propidium iodide staining of cells in agarose gel particles; format: cell-based; conditions: 48 hr incubation, drops containing 20 micrograms/mL Imatinib mixed at a 1:1 ratio (10 micrograms/mL per FIG. 12), PI and Annexin V staining
Description: In this example, first cells are mixed with molten low melt agarose at 37° C. and together incorporated into droplets. […] An UltraPure low melting point agarose is used in this experiment, which melts at 65.5° C., remains fluid at 37° C. and becomes solid rapidly at temperatures below 25° C. […] In this example, agarose powder was dissolved into PBS and autoclaved to prepare a sterilized 2% (w/v) agarose solution. Cells were counted and suspend in a DMEM culture media with 40% fetal bovine serum, and the cell suspension was mixed with agarose solution at 1:1 volume ratio. The mixture of cells and agarose gel was flowed into the sample inlet of a microfluidic drop-making device, and HFE7500 oil with 2% surfactant was flowed into the oil inlet to cause the cell-containing agarose gel to produce 80 micrometer drops. The generated gel-in-oil drops were collected into a pre-cooled eppendorf tube in an ice bath.
The drops containing agarose gel particles were collected into a pre-cooled eppendorf tube, after which the injected cell-containing agarose gel remained spherical. In the following steps, the agarose gel particles were injected into the drop containing drug combination and drug barcodes, followed by incubation, destabilization, staining, washing and FACS to obtain the gel particles containing positive cells. […]

With `Cc1ccc(NC(=O)c2ccc(CN3CCN(C)CC3)cc2)cc1Nc1nccc(-c2cccnc2)n1` [Imatinib] the “apoptotic signal (Caspalux6-J1D2 fluorescence)” value [1] was “clear apoptotic signal” and the “apoptotic and necrotic cells” value (Leukemia K562 cells) was “About 70%”.
